Here are results for two molecules from PMC10790790, “Viscosity-dependent determinants of Campylobacter jejuni impacting the velocity of flagellar motility” (mBio, 2023).

One assay deals with T1, CbrR (Campylobacter jejuni, UniProt Q0PAM5).
T1 construct: codon 2 to penultimate codon, C-terminal Myc-6xHis tag kept, pBAD/myc-HisA (pDAR6203), E. coli Top10
In words: DRaCALA on nitrocellulose. It is filed as binding. The note with it: 10 mM Tris-HCl pH 8, 100 mM NaCl, 5 mM MgCl2.

Assay [1] deals with T2, WspR (Pseudomonas aeruginosa, UniProt Q9HXT9).
T2 construct: codon 2 to penultimate codon, from pVL791, C-terminal Myc-6xHis tag kept, pBAD/myc-HisA (pDAR6535), E. coli Top10
Put plainly: DRaCALA on nitrocellulose; also TLC of c-di-GMP synthesis. It is filed as biochemical. The note with it: labelled compound ([alpha-32P]GTP); 10 mM Tris-HCl pH 8, 100 mM NaCl, 5 mM MgCl2 (DRaCALA); 10 mM MgCl2, room temperature (TLC).

Assay [2] addresses T2, WspR. Put plainly: DRaCALA on nitrocellulose. The format is biochemical. Conditions: labelled compound ([32P]c-di-GMP made by WspR); 10 mM Tris-HCl pH 8, 100 mM NaCl, 5 mM MgCl2.

The structures appear in SMILES notation.

T1 sequence (Q0PAM5 entry or part of it): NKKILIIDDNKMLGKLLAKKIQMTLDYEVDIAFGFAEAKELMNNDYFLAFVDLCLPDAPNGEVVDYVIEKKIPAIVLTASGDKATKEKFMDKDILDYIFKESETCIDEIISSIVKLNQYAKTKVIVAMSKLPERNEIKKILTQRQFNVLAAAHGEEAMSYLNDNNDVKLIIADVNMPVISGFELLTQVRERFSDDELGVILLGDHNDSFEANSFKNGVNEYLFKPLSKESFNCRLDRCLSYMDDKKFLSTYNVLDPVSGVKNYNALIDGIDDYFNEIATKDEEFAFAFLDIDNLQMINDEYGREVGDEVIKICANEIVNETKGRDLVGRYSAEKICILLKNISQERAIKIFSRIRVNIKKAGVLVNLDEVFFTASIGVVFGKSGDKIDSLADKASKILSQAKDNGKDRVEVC
T2 sequence (Q9HXT9 entry or part of it): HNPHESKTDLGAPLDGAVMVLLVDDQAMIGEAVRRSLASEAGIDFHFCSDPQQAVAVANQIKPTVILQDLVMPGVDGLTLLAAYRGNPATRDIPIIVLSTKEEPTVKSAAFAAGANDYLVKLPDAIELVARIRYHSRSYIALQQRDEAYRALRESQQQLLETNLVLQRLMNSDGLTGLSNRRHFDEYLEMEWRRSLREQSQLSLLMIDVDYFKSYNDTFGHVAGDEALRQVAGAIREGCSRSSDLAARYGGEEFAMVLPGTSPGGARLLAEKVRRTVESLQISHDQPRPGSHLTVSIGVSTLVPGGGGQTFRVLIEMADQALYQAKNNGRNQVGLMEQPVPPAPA

Consider `Nc1nc2c(ncn2[C@@H]2O[C@H](COP(=O)(O)OP(=O)(O)OP(=O)(O)O)[C@@H](O)[C@H]2O)c(=O)[nH]1` [GTP], for which, on CbrR (labelled compound ([alpha-32P]GTP)), the DRaCALA on nitrocellulose result was “recombinant WspR and CbrR bound both GTP and c-di-GMP, but VidA and VidB did not”. In addition, the “DRaCALA on nitrocellulose; also TLC of c-di-GMP synthesis” value at WspR [1] is “recombinant WspR and CbrR bound both GTP and c-di-GMP, but VidA and VidB did not”.

Turning to `Nc1nc2c(ncn2[C@@H]2O[C@@H]3COP(=O)(O)O[C@H]4[C@@H](O)[C@H](n5cnc6c(=O)[nH]c(N)nc65)O[C@@H]4COP(=O)(O)O[C@H]3[C@H]2O)c(=O)[nH]1` [c-di-GMP], the DRaCALA on nitrocellulose entry on WspR [2] was “recombinant WspR and CbrR bound both GTP and c-di-GMP, but VidA and VidB did not”; at CbrR (labelled compound ([32P]c-di-GMP made by WspR)) it was “recombinant WspR and CbrR bound both GTP and c-di-GMP, but VidA and VidB did not”.
